According to patent publication US20220117938A1, “COMBINATON THERAPY WITH A DON PRODRUG AND AN IMMUNE CHECKPOINT INHIBITOR” (DRACEN PHARMACEUTICALS, INC., priority 2019, published 2022):

System: CT26.WT tumors
Experiment: Anti-tumor efficacy of Compound 1 in the CT26.WT model: schedule comparison (Example 5)
Assay type: in vivo, mice
Details: for Mean Tumor Vol / TGI: Day 14; for Mean Tumor Vol / TGI / Cures / ILS: sc
Experimental: Female BALB/c mice were inoculated subcutaneously at right flank with CT26.WT cells for tumor development. Treatment started on day 6 after tumor inoculation when the tumor size reached 40-79 mm^3 (average tumor size 57 mm^3). Each group consisted of 8 tumor-bearing mice. The tumor sizes were measured three times per week during the treatment. The entire study was terminated on D57 after start of the treatment. Otherwise, the experimental methods and procedures are similar to those described in EXAMPLE 2B.

[1] = Group 2: 1.4 mpk 5-days ON 2-days OFF x4 cycles
[2] = Group 3: 1.4 mpk 5-days ON 2-days OFF x2 cycles followed by 3-days ON (Mon-Wed) 4-days OFF x2 cycles
[3] = Group 4: 1.4 mpk 5-days ON 2-days OFF x2 cycles followed by 3-days ON (Mon, Wed, Fri) 4-days OFF x2 cycles
[4] = Group 5: 2.33 mpk 3-days ON (Mon-Wed) 4-days OFF x4 cycles
[5] = Group 6: 2.33 mpk 3-days ON (Mon, Wed, Fri) 4-days OFF x4 cycles
[6] = Group 7: 0.5 mpk 5-days ON 2-days OFF x4 cycles
[7] = Group 8: 0.83 mpk 3-days ON (Mon-Wed) 4-days OFF x4 cycles
[8] = Group 9: 0.83 mpk 3-days ON (Mon, Wed, Fri) 4-days OFF x4 cycles

In the case of `CC(=O)N[C@@H](Cc1c[nH]c2ccccc12)C(=O)N[C@@H](CCC(=O)C=[N+]=[N-])C(=O)OC(C)C` [Compound 1, Isopropyl (S)-2-((S)-2-acetamido-3-(1H-indol-3-yl)propanamido)-6-diazo-5-oxohexanoate], the “ILS (maximum median survival)” value (1.4 mg/kg 5-day ON 2-day OFF) is reported as 106%, the Long term cure (1.4 mg/kg 5-day ON 2-day OFF, animals cured/animals in group) is reported as 1/8 and the “Tumor growth inhibition, schedule switch compared to 1.4 mg/kg 5-day ON 2-day OFF×4 cycles” value (1.4 mg/kg, switching from 5-day ON 2-day OFF to 3-day ON 4-day OFF on Day 14) is reported as “reduced tumor growth inhibition”. The “Efficacy and survival benefit, Mon-Wed compared with Mon, Wed, Fri dosing” value (3-day ON 4-day OFF schedules, equivalent total dose per cycle) was “equivalent efficacy and survival benefit”, the “Tumor growth inhibition and survival benefit compared to 3-day ON 4-day OFF schedules” value (5-day ON 2-day OFF schedule, equivalent total dose per cycle, 4 weeks) was “superior tumor growth inhibition and survival benefit” and the “Mean Tumor Vol” value [1] was 163 ± 25 mm^3. For the same compound, the TGI [1] was 92%, the “Mean Tumor Vol” value [2] was 155 ± 27 mm^3 and the TGI [2] was 93%. The “Mean Tumor Vol” value [3] was 164 ± 12 mm^3, the TGI [3] was 92% and the “Mean Tumor Vol” value [4] was 169 ± 32 mm^3. The TGI [4] was 92%, the “Mean Tumor Vol” value [5] was 240 ± 45 mm^3 and the TGI [5] was 87%. The “Mean Tumor Vol” value [6] was 302 ± 41 mm^3, the TGI [6] was 82% and the “Mean Tumor Vol” value [7] was 484 ± 87 mm^3. For the same compound, the TGI [7] was 69%, the “Mean Tumor Vol” value [8] was 488 ± 74 mm^3 and the TGI [8] was 68%. It also gave a Cures [1] of 12.5%, an ILS [1] of 106% and a Cures [2] of 0%. The ILS [2] was 67%, the Cures [3] was 12.5% and the ILS [3] was 94%. The Cures [4] was 0%, the ILS [4] was 86% and the Cures [5] was 0%. The ILS [5] was 94%, the Cures [6] was 0% and the ILS [6] was 67%. The Cures [7] was 0%, the ILS [7] was 67% and the Cures [8] was 0%. The ILS [8] was 39%.
